Conditions: Hot wire method

F/C=C/C(F)(F)F [trans-1,3,3,3-tetrafluoropropene]
Conditions	thermal conductivity [W/m/K]
262.32 K, 98 kPa, Gas	0.01085
262.32 K, 15456 kPa, Liquid	0.09473
262.36 K, 10416 kPa, Liquid	0.09243
262.42 K, 488 kPa, Liquid	0.08745
262.42 K, 5301 kPa, Liquid	0.08997
262.42 K, 21223 kPa, Liquid	0.09713
262.45 K, 15452 kPa, Liquid	0.09456
262.49 K, 10417 kPa, Liquid	0.09221
262.56 K, 488 kPa, Liquid	0.08718
262.56 K, 5298 kPa, Liquid	0.08972
262.61 K, 123 kPa, Gas	0.01085
262.62 K, 107 kPa, Gas	0.01086
262.63 K, 98 kPa, Gas	0.01084
262.65 K, 80 kPa, Gas	0.01085
262.67 K, 97 kPa, Gas	0.01087
262.79 K, 21214 kPa, Liquid	0.0972
262.84 K, 15455 kPa, Liquid	0.09447
262.89 K, 10416 kPa, Liquid	0.0922
262.96 K, 5304 kPa, Liquid	0.0897
262.96 K, 21225 kPa, Liquid	0.09681
262.98 K, 488 kPa, Liquid	0.08717
262.99 K, 121 kPa, Gas	0.0108
263 K, 15446 kPa, Liquid	0.0942
263.01 K, 106 kPa, Gas	0.01081
263.02 K, 97 kPa, Gas	0.01085
263.04 K, 80 kPa, Gas	0.01079
263.05 K, 98 kPa, Gas	0.01086
263.06 K, 10416 kPa, Liquid	0.09188
263.13 K, 5299 kPa, Liquid	0.08937
263.16 K, 488 kPa, Liquid	0.08692
263.36 K, 21219 kPa, Liquid	0.09681
263.39 K, 119 kPa, Gas	0.01089
263.4 K, 15447 kPa, Liquid	0.0942
263.42 K, 104 kPa, Gas	0.01088
263.43 K, 97 kPa, Gas	0.01089
263.45 K, 80 kPa, Gas	0.01089
263.45 K, 98 kPa, Gas	0.01081
263.48 K, 10415 kPa, Liquid	0.09186
263.55 K, 21219 kPa, Liquid	0.09652
263.56 K, 5297 kPa, Liquid	0.08933
263.59 K, 488 kPa, Liquid	0.08681
263.6 K, 15455 kPa, Liquid	0.09401
263.68 K, 10416 kPa, Liquid	0.09153
263.77 K, 5291 kPa, Liquid	0.08901
263.8 K, 488 kPa, Liquid	0.08652
272.01 K, 173 kPa, Gas	0.01193
272.22 K, 93 kPa, Gas	0.01165
272.23 K, 118 kPa, Gas	0.01168
272.23 K, 164 kPa, Gas	0.01178
272.24 K, 170 kPa, Gas	0.01181
272.27 K, 80 kPa, Gas	0.01132
272.44 K, 180 kPa, Gas	0.01146
272.47 K, 93 kPa, Gas	0.01156
272.47 K, 117 kPa, Gas	0.01157
272.47 K, 162 kPa, Gas	0.01169
272.51 K, 78 kPa, Gas	0.01132
272.73 K, 92 kPa, Gas	0.01149
272.73 K, 159 kPa, Gas	0.01161
272.74 K, 116 kPa, Gas	0.0115
272.74 K, 177 kPa, Gas	0.01151
272.76 K, 76 kPa, Gas	0.01132
272.99 K, 157 kPa, Gas	0.01156
273 K, 90 kPa, Gas	0.01144
273.01 K, 114 kPa, Gas	0.01146
273.03 K, 74 kPa, Gas	0.01133
273.1 K, 175 kPa, Gas	0.01153
273.28 K, 154 kPa, Gas	0.01152
273.29 K, 89 kPa, Gas	0.01139
273.3 K, 112 kPa, Gas	0.01142
273.31 K, 73 kPa, Gas	0.01134
273.47 K, 172 kPa, Gas	0.01157
273.48 K, 166 kPa, Gas	0.0116
273.58 K, 119 kPa, Gas	0.01167
273.62 K, 94 kPa, Gas	0.01167
273.64 K, 84 kPa, Gas	0.01168
273.88 K, 163 kPa, Gas	0.0116
274 K, 118 kPa, Gas	0.01166
274.07 K, 93 kPa, Gas	0.01171
274.08 K, 78 kPa, Gas	0.01173
274.32 K, 160 kPa, Gas	0.01166
274.45 K, 116 kPa, Gas	0.01173
274.52 K, 92 kPa, Gas	0.01174
274.54 K, 77 kPa, Gas	0.01173
274.78 K, 158 kPa, Gas	0.01168
274.92 K, 115 kPa, Gas	0.01175
275.01 K, 91 kPa, Gas	0.01175
275.03 K, 75 kPa, Gas	0.01176
275.27 K, 155 kPa, Gas	0.01171
275.43 K, 113 kPa, Gas	0.01179
275.53 K, 90 kPa, Gas	0.0118
275.55 K, 73 kPa, Gas	0.01186
281.19 K, 491 kPa, Liquid	0.08061
281.19 K, 20251 kPa, Liquid	0.09143
281.22 K, 15223 kPa, Liquid	0.08878
281.25 K, 10286 kPa, Liquid	0.08621
281.25 K, 23293 kPa, Liquid	0.09262
281.26 K, 20239 kPa, Liquid	0.09104
281.27 K, 458 kPa, Liquid	0.08057
281.27 K, 5355 kPa, Liquid	0.08361
281.29 K, 15230 kPa, Liquid	0.0886
281.32 K, 10282 kPa, Liquid	0.08605
281.34 K, 5380 kPa, Liquid	0.08336
281.37 K, 102 kPa, Gas	0.01233
281.37 K, 144 kPa, Gas	0.01241
281.37 K, 199 kPa, Gas	0.01253
281.37 K, 244 kPa, Gas	0.01266
281.57 K, 23287 kPa, Liquid	0.09254
281.59 K, 243 kPa, Gas	0.01263
281.59 K, 20208 kPa, Liquid	0.09091
281.6 K, 199 kPa, Gas	0.01245
281.61 K, 101 kPa, Gas	0.01221
281.61 K, 142 kPa, Gas	0.0123

Liquid
Conditions	thermal conductivity [W/m/K]
263.15 K	0.08688
273.15 K	0.08321
